# Experimental data taken from PubChem BioAssay AID179 (DTP/NCI, 2004).
# Calls of active or inactive are those of the source.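 How the source made its calls: active means compounds giving half or more protection of infected cells from virus-caused growth loss, again on retest; inactive means the rest.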 Where a SMILES comes first, the peptide text is derived from it. [ ]: non-standard residue; d: D form. The star is where a group is joined. Myristoyl = CCCCCCCCCCCCCC(=O)*; hSer = N[CH](CCO)C(=O)O; Boc = CC(C)(C)OC(=O)*
# System: CEM cells HIV-1 protection, formazan growth assay
# Assay: NCI AIDS Antiviral Assay
# Conditions: for IC50: measured here: growth of uninfected CEM cells
# How it was run: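 Protection of CEM cells against HIV-1 measured as cell growth via soluble formazan read-out, with five concentrations tested on both infected and uninfected cells; failure to protect may reflect toxicity.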
SMILES,EC50 [µM],IC50 [µM],outcome
CCC1OC(=O)[C@H](C)C(OC2CC(C)(OC)C(O)C(C)O2)C(C)C(OC2OC(C)CC(N(C)C)C2O)[C@](C)(O)CC(C)CN(C)[C@H](C)[C@@H](O)[C@]1(C)O (stereo not given in full),> 200,132,
Cc1cc(C)nc(NS(=O)(=O)c2ccc(NNC(=O)c3cccc4c(NNc5ccc(S(=O)(=O)Nc6nc(C)cc(C)n6)cc5)c5ccccc5nc34)cc2)n1,> 200,21.9,
Cc1cc(=O)[nH]c2c1C(=O)c1c(C)cc(=O)n(C)c1C2=O,> 2,0.257,
C[C@@H]1CC[C@@]2(OC1)O[C@H]1C[C@H]3[C@@H]4CC[C@H]5C[C@@H](OC6OC(CO)C(OC7OC(CO)C(O)C(OC8OCC(O)C(O)C8O)C7OC7OC(CO)C(O)C(O)C7O)C(O)C6O)CC[C@]5(C)[C@H]4CC[C@]3(C)[C@H]1[C@@H]2C (stereo not given in full),> 100,6.17,
Cn1c2ccccc2c2cc(-c3ccccc3)c3c(c21)C(=O)c1ccccc1C3=O,> 13.5,> 13.5,
O=C(O)C1C2C=CC(C2)C1c1c2ccc(=O)c(O)c-2oc2c(O)c(O)ccc12 (stereo not given),> 200,26.3,
Cc1ccc(S(=O)(=O)C(C#N)c2nc3ccccc3nc2-n2ccnc2)cc1 (stereo not given),> 200,155,
COc1ccc(N2C(=O)/C(=C/c3ccc(N(CCC#N)CCC#N)cc3C)N=C2c2cc([N+](=O)[O-])ccc2Cl)cc1,> 12.6,3.02,
N#CNC1=NC(N)C(c2nc3ccccc3[nH]2)=C(CCCC(=O)Nc2cccc([N+](=O)[O-])c2)N1 (stereo not given),> 77.6,> 77.6,
NC1=Nc2cc(Cl)ccc2Sc2nc3ccccc3n21,> 200,20.9,
O=S(CCCl)c1c2ccccc2nc2ccccc12 (stereo not given),> 200,30.9,
[N-]=[N+]=Nc1cc(=O)n(-c2ccccc2)c2ccccc12,,,inactive
NC(CS/C=C\C(=O)O)C(=O)O (stereo not given),> 27.5,> 27.5,
O=C1C(=C2SC(c3ccccc3)(c3ccccc3)c3ccccc32)C(=O)c2ccccc21,> 200,> 200,
CC(=O)NC(Cc1ccccc1)C(=S)N1CCCC1 (stereo not given),> 912,776,
COC1OC(COCc2ccc(Cl)cc2)C(OCc2ccc(Cl)cc2)C1O (stereo not given),,,inactive
COc1cc2c3c(c1OC)-c1cc4c(cc1CC3(C#N)N(C(=O)c1ccccc1)CC2)OCO4 (stereo not given),,,inactive
CC1CC2C(=O)NC(=O)C2c2[nH]c3ccccc3c21 (stereo not given),,,inactive
O=[N+]([O-])OC1CCCC(O[N+](=O)[O-])c2c1n([O-])c1ccccc1[n+]2=O (stereo not given),> 51.3,1.41,
C=CCOc1c(C)cc(C#N)cc1C,,,inactive
Nc1c(C(=O)O)nnc2cc(Cl)ccc12,> 200,66.1,

SMILES,EC50 [µM],IC50 [µM],outcome
CCC[CH2][Sn]1([CH2]CCC)[O]CC(CN2CCCC2)[O]1 (stereo not given),> 34.7,,
CCCCCCCCCCC(O)CCCCCCC(=O)O (stereo not given),,,inactive
COC(=O)/C(=N\NC(N)=S)C(C#N)c1ccccc1 (stereo not given),> 129,> 129,
CC(C)CCn1c(=O)c2c(=O)[nH][nH]c2c2ccccc21,> 200,> 200,
COCCC(NC(=O)C(CC(C)C)NC(=O)OC(C)(C)C)C(=O)OC (stereo not drawn) (Boc-Leu-[hSer](Me)-OMe; configuration not given here),> 200,26.9,
CC1C(=O)NC(=O)CC(=O)NC1=O,> 1350,> 1350,
CC(C)CCCC(C)N (stereo not given),> 200,> 200,
O=C1CC(c2ccccc2)NCN1 (stereo not given),,,inactive
CC1(C2CCC3(C)C(C2)C3Sc2ccccc2)OCCO1 (stereo not given),,,inactive
CC1OCC2OC(C)OC(C3C4=C(CC(C)(C)CC4=O)OC4=C3C(=O)CC(C)(C)C4)C2O1 (stereo not given),> 562,550,
O=C1Cc2c([nH]c3ccc(Cl)cc23)-c2ccccc2N1,> 200,17.4,
N#CC1CCCCC1NC1(C#N)CCCCC1 (stereo not given),> 195,> 195,
CC(C)(Oc1ccc2c(=O)cc(-c3ccc(Cl)cc3)oc2c1)C(=O)Nc1c(Cl)cccc1Cl,> 10.2,> 10.2,
OC12OC3(c4ccc(C(F)(F)F)cc4)C4C5CC(C6C5C3C61)C42 (stereo not given),,,inactive
Cc1ccc(NC(=O)C(=O)CC(=O)c2sc(Nc3c(C)cccc3C)nc2C)cc1C,> 200,> 200,
Cc1cc(C)c2cc(=O)oc-2c(C)c1,> 93.3,> 93.3,
CC(C)N([P-]C(=O)[P-]N(C(C)C)C(C)C)C(C)C.[C-]#[O+].[C-]#[O+].[C-]#[O+].[C-]#[O+].[C-]#[O+].[C-]#[O+].[Fe].[Fe] (stereo not given),> 3.55,> 3.55,
CCC(C)[C@@H](NCc1ccccc1)[C@H](OCc1ccccc1)[C@@H]1COC(C)(C)O1 (stereo not given in full),> 200,22.4,
C=C(C)C(CCC(=O)O)(CCC(=O)O)C(C)=O,> 1020,> 1020,
CC1OC2(CC(OCc3ccccc3)C1OCc1ccccc1)OCCO2 (stereo not given),> 200,29.5,
O=C(O/N=C1/CCC/C1=C\c1ccccc1)c1ccccc1,,,inactive

SMILES,EC50 [µM],IC50 [µM],outcome
CC(C)c1cccc(C(C)C)c1N1C(=O)C(=O)C(c2nc3ccccc3o2)C(=O)C1=O,,,inactive
CSc1n[nH]c(=O)c2nc[nH]c12,> 245,> 245,
c1csc(-c2cc(-c3cccs3)c(-c3ccsc3)s2)c1,> 200,33.1,
CC1CN2COC(=S)SSSSC(=S)OCN3CC(C)N(COC(=S)SSSSC(=S)OCN1CC2C)CC3C (stereo not given),> 100,12,
O=C(NC(=O)c1ccccc1[N+](=O)[O-])Nc1ccc(Oc2ncc(Cl)cn2)c([N+](=O)[O-])c1,,,inactive
CCCCCCC[C@@H](O)CC(=O)NC(CC(C)C)C(=O)NC(CCC(=O)O)C(=O)NC1C(=O)NC(C(C)C)C(=O)NC(CC(C)C)C(=O)NC(CO)C(=O)NC(CC(C)C)C(=O)NC(CO)C(=O)NC(C(C)CC)C(=O)OC1C (stereo not given in full),91.2,166,
CCN(CC)C1Oc2cc3c(cc2C(c2cc(OC)c(O)c(OC)c2)C1C)OCO3 (stereo not given),> 200,1.29,
CNc1ccc(N)cc1C(=O)N1CCC[C@H]1CO,> 200,> 200,
CCCCCCC[CH2][Sn]([Cl])([Cl])[CH2]CCCCCCC,,,inactive
CCOC(=O)/C(C#N)=C/c1cccc(F)c1,> 162,> 162,
O=S(=O)([O-])[O-].O=c1[nH]cnc2[nH]ncc12.O=c1[nH]cnc2[nH]ncc12.[Zn+2],> 209,155,
Cc1oc2c(c(C)nn2-c2ccccc2)c(=O)c1Cl,> 200,174,
CN(c1ccc(Cl)cc1)S(=O)(=O)c1ccccc1[N+](=O)[O-],> 200,24.5,
Cc1ccc2c(=O)c3ccccc3sc2c1,> 200,> 200,
O=[N+]([O-])c1cc2ccc1OCc1cccc(n1)COc1ccc(cc1[N+](=O)[O-])C=NCCCCCCCCN=C2,> 200,> 200,
COc1ccc(/C=C2\CCCC(C(NO)c3ccc(OC)cc3)C2=NO)cc1 (stereo not given),> 19.1,> 19.1,
Cc1ccc2c(c1)C(=O)c1cc(C)cc(C(=O)O)c1-2,> 200,> 200,
CC[N+]1(C)CCC(O)(/C=C/c2ccc(Cl)cc2)C(C(=O)/C=C/c2ccc(Cl)cc2)C1 (stereo not given),> 20,2.95,
COc1ccccc1NCc1cccc2c(=O)c3ccc(Cl)cc3oc12,> 151,46.8,
N#C/C(=C\c1ccc2ccccc2c1)C(=O)c1ccccc1,> 7.08,> 7.08,
CCOc1nnnc2nc[nH]c12,> 200,70.8,

SMILES,EC50 [µM],IC50 [µM],outcome
CC1(C)CNC[C@@]2(C)OCCN(C(=O)OC(C)(C)C)CCO[C@]3(C)CNCC(C)(C)NC(=O)[C@@](C)(CNCC(C)(C)NC3=O)OCCN(C(=O)OC(C)(C)C)CCO[C@](C)(CNCC(C)(C)NC2=O)C(=O)N1,,,inactive
O=c1c2c3ccccc3[nH]c2c2cccc3c2n1CCC3,> 200,61.7,
CNC(=S)NC1CCCCC1NC(=S)NC (stereo not given),> 692,> 692,
[N-]=[N+]=Nc1ccccc1Oc1ccccc1,58.9,89.1,
CN(C)CC1CCCC/C1=N/OC(=O)c1ccc(Cl)c(Cl)c1 (stereo not given),,,inactive
Nc1nc(N)c2cc(Sc3ccc4nc(N)nc(N)c4c3)ccc2n1,> 0.2,0.0708,
CCC1(C)C=Cc2c(cc(OC)c3c(=O)c4ccccc4n(C)c23)O1 (stereo not given),> 200,24.5,
O=C(Nc1ccc(NC2=NCCN2)cc1)c1ccc(C(=O)Nc2ccc(NC3=NCCN3)cc2)c([N+](=O)[O-])c1,> 200,15.1,
C=C(C)C(C)(C)n1[nH]c(=O)n(-c2ccccc2)c1=O,> 200,> 200,
CCOC(=O)C12CC1(C(=O)OCC)C1CCC2C1 (stereo not given),> 200,> 200,
Sc1cccc2c(S)cccc12,> 200,> 200,
O=c1[nH]c2ccccc2c(O)c1O,> 200,> 200,
CCOP(=O)(Cc1nc(C#N)c(N)o1)OCC,> 200,> 200,
Cc1cn(COCC(O)C[N+](=O)[O-])c(=O)[nH]c1=O (stereo not given),> 200,> 200,
O=c1[nH]nc(Cn2c3ccc(Br)cc3c3nc4ccccc4nc32)n1C1CCCCC1,> 200,174,
Cc1ccc2c(c1)CC1(C2)Cc2ccc(C)cc2C1=O (stereo not given),> 200,23.4,
NC(=S)N/N=C/c1ccc(O)cn1,> 661,1.12,
CCCCCCCCCCCCCC(=O)NCC(=O)NC(C)C(=O)NC(CCCNC(=N)N)C(=O)NC(C)C(=O)NC(CO)C(=O)NC(C(=O)NC(CC(C)C)C(=O)NC(CO)C(=O)NCC(=O)NCC(=O)NC(CCC(=O)O)C(=O)NC(CC(C)C)C(=O)NC(CC(=O)O)C(=O)NC(CCCNC(=N)N)C(=O)NC(Cc1c[nH]c2ccccc12)C(=O)NC(Cc1ccc(O)cc1)C(N)=O)C(C)C (stereo not given) (Myristoyl-GARASVLSGGELDRWY-NH2; configuration not given here),> 129,> 129,
COc1cccc(C=C(C#N)C#N)c1OC,> 200,> 100,
CC/C(CC(=O)CCC(=O)Nc1c(C)cccc1C)=N\NC(=O)NN,> 145,> 145,
